In patent US20260108447A1, “RESIDENT-SKIN-FLORA-IMPROVING AGENT AND EXTERNAL-USE COMPOSITION FOR SKIN” (NIHON SHOKUHIN KAKO CO., LTD., priority 2022, published 2026):

Assays:
Assay in all cases: Change in bacteria count (bacterial turbidity OD660) when the sugar is added to the culture medium
Assay type in all cases: cell-based
[1] = test system: Staphylococcus hominis (JCM31912); conditions: 24 hours; for effect for promoting proliferation: test example 5, FIG. 5, sentence names no bacterium, taken as S. hominis; for proliferation of S. hominis, relative value (percentage relative to non-sugar-added group): test example 4, OD660, FIG. 4
Description: (§1) An investigation was conducted in regard to a change in bacteria count when the α-gluco-oligosaccharide or the β-gluco-oligosaccharide prepared as described above was added to a culture medium and culturing was carried out in culturing of the various bacteria indicated in table 3 as resident skin bacteria under respectively suitable culture conditions.
(§2) Specifically, the various bacteria were cultured overnight using respectively suitable culture media to prepare preculture solutions, and the α-gluco-oligosaccharide or the β-gluco-oligosaccharide prepared as described above was added to 3 mL of fresh culture media so as to reach a final concentration of 0.5 (w/v) %, whereupon 0.03 ml of the preculture liquids was mixed thereinto and cultured for 24 hours, and the bacterial turbidity (OD660) after culturing was measured. Additionally, glucose was added as a sugar to a culture medium and similar tests were performed to arrive at a comparative control. The results were expressed as relative values (percentage relative to non-sugar-added group), where 100% indicated the bacterial turbidity when sterilized ultrapure water was added instead of any sugar.
(§3) The effect for promoting proliferation of S. hominis, S. aureus, C. acnes, C. xerosis, or M. luteus was evaluated in the same manner as in test example 1, except that sophorose prepared at high purity as described above was used as the β-gluco-oligosaccharide composed of disaccharides, and the amount of the sophorose added to the culture medium was set to 0.1 (w/v) %, 0.5 (w/v) %, or 1.0 (w/v) % in terms of final concentration.
(§4) The effect for promoting proliferation of S. hominis, S. aureus, C. acnes, C. xerosis, or M. luteus was evaluated in the same manner as in test example 1, except that laminaribiose and gentiobiose prepared at high purity as described above, as well as commercially available cellobiose (Nacalai Tesque, Inc.), were used as the β-gluco-oligosaccharide composed of disaccharides, and the amount of the β-gluco-oligosaccharide added to the culture medium was set to 0.5 (w/v) % in terms of final concentration.

[2] = test system: Micrococcus luteus (JCM1464); conditions: 24 hours; for proliferation of M. luteus, relative value (percentage relative to non-sugar-added group): test example 5, final concentration 0.5 (w/v) %, OD660, FIG. 5
Description: as §1, §2, §3, §4

[3] = test system: Staphylococcus epidermidis (JCM20345); conditions: 24 hours
Description: as §1, §2
Specifically, the effect for promoting proliferation of S. epidermidis was evaluated in the same manner as in test example 1, except that sophorose, laminaribiose, or gentiobiose prepared at high purity as described above was used as the sugar to be added to the culture medium, and the amount of the sugar added to the culture medium was set to 0.3 (w/v) % or 0.5 (w/v) % in terms of the final concentration.
The effect for promoting proliferation of S. epidermidis was evaluated in the same manner as in test example 2, except that sophorose prepared at high purity as described above was used as the β-gluco-oligosaccharide composed of disaccharides, and the amount of the sophorose added to the culture medium was set to 0.1 (w/v) % or 1.0 (w/v) % in terms of the final concentration.

[4] = test system: Corynebacterium xerosis (JCM1971); conditions: test example 4; at any of 0.1, 0.5, 1.0 (w/v) %, 24 hours; FIG. 4
Description: as §1, §2, §3, §4

[5] = test system: Staphylococcus aureus (ATCC6538); conditions: 24 hours
Description: as §1, §2, §3, §4

[6] = test system: Cutibacterium acnes (JCM6425); conditions: test example 4; at any of 0.1, 0.5, 1.0 (w/v) %, 24 hours; FIG. 4
Description: as §1, §2, §3, §4

[7] = final concentration 0.5 (w/v) %
[8] = test example 2, high-purity sugar 0.3 (w/v) % or 0.5 (w/v) % final concentration, FIG. 2
[9] = test example 4, at any of 0.1, 0.5, 1.0 (w/v) %, FIG. 4

Compound | effect for promoting proliferation [1, 7] | proliferation of M. luteus, relative value (percentage relative to non-sugar-added group) [2] [%] | effect for promoting proliferation of S. epidermidis [3, 8] | effect for promoting proliferation of S. epidermidis ([3]; test example 3, final concentration 0.1 (w/v) %, FIG. 3) | effect for promoting proliferation of S. epidermidis, compared with 0.5 (w/v) % of test example 2 ([3]; test example 3, final concentration 1.0 (w/v) %, FIG. 3) | effect for promoting proliferation of C. xerosis relative to the control [4] | proliferation of S. hominis, relative value (percentage relative to non-sugar-added group) [1, 7] [%] | proliferation of S. hominis, relative value (percentage relative to non-sugar-added group) ([1]; final concentration 1.0 (w/v) %) [%] | effect for promoting proliferation of S. aureus relative to the control [5, 9] | effect for promoting proliferation of M. luteus relative to the control [2, 9] | effect for promoting proliferation of C. acnes relative to the control [6] | proliferation of S. aureus, relative value (percentage relative to non-sugar-added group) ([5]; test example 5, final concentration 0.5 (w/v) %, OD660, FIG. 5) [%]
O=C[C@H](O)[C@@H](O)[C@H](O[C@@H]1O[C@H](CO)[C@@H](O)[C@H](O)[C@H]1O)[C@H](O)CO [cellobiose] | not confirmed to yield an effect for promoting proliferation | 111.7 |  |  |  |  |  |  |  |  |  | 
gentiobiose | not confirmed to yield an effect for promoting proliferation | 121.9 | did not exhibit an effect for promoting proliferation |  |  |  |  |  |  |  |  | 
O=C[C@H](O[C@@H]1O[C@H](CO)[C@@H](O)[C@H](O)[C@H]1O)[C@@H](O)[C@H](O)[C@H](O)CO [sophorose, 2-O-β-D-glucopyranosyl-D-glucose] |  |  | prominent effect for promoting proliferation | exhibit the effect for promoting proliferation | no great difference was observed | no effect for promoting proliferation | 118.0 | 118.8 | no effect for promoting proliferation | no effect for promoting proliferation | no effect for promoting proliferation | 
OC[C@H]1O[C@@H](O[C@H]2[C@H](O)[C@@H](CO)OC(O)[C@@H]2O)[C@H](O)[C@@H](O)[C@@H]1O (some centres unmarked) [laminaribiose, reference compound] | not confirmed to yield an effect for promoting proliferation |  | did not exhibit an effect for promoting proliferation |  |  |  |  |  |  |  |  | 108.5
